Source: article PMC8034185, “The rumen eukaryotome is a source of novel antimicrobial peptides with therapeutic potential” (BMC Microbiology, 2021)
Ends that are not written are not given here.

Columns and labels:
human red blood cells = experiment: Haemolytic activity; type: cell-based; details: human RBC, CTAB control
Procedure: (§1) Fresh human red blood cells (RBC) (Cambridge Bioscience, UK) and defibrinated sheep erythrocytes (Oxoid Ltd. Hampshire, UK) were washed 3 times with PBS, centrifuged for 5 min at 500 rpm between each wash and resuspended to 4% (v/v) in PBS. […] The percentage of haemolysis was calculated according to the equation: (A450 peptide solution − A450 PBS)/ (A450 0.1% Triton X-100 − A450 PBS) × 100. The therapeutic index (T.I.) was calculated as the ratio of the minimum haemolytic concentration ((MHC)- causing 5% haemolysis to human erythrocytes) to the minimum inhibitory concentration (MICGM+) [46]. The MICGM+ was the minimum inhibitory concentration of the peptide against Gram-positive bacterial strains after the geometric mean was calculated.

sheep erythrocytes = experiment: Haemolytic activity; type: cell-based; details: for haemolysis of sheep erythrocytes: 1 h; for Haemolytic activity (Minus PBS/average positive*100): sheep erythrocytes
Procedure: as §1

S. aureus strains = type: cell-based, Staphylococcus aureus
[1] = test system: drug resistant A. baumannii isolates; type: cell-based, Acinetobacter baumannii
Procedure: MICs against a range of clinically important Gram-positive and Gram-negative bacteria strains including methicillin-sensitive Staphylococcus aureus (MSSA) RN4220 epidemic methicillin-resistant S. aureus-15 (EMRSA-15), methicillin-resistant S. aureus USA300 (MRSA USA300), Bacillus cereus, Enterococcus faecalis JH2–2, Escherichia coli K12, Salmonella enterica serovar Typhimurium SL1344, P. aeruginosa PAO1, and hospital isolates of Acinetobacter baummannii were determined in quadruplicate by a modified microdilution broth method [64] with a final bacterial inoculum concentration of 5 × 10^5 CFU/mL utilised as the test organisms. Cation-adjusted Mueller Hinton (MH) broth was innoclated overnight with a single colony of the tested microorganisms, subsequently grown for 16–24 h with shaking at 225 rpm, and further diluted in the same broth to a final concentration of 5 × 10^5 CFU/mL. The bacterial suspension was added to sterile U-bottomed 96-well plates, and the peptides and control antibiotics to be tested were dissolved in sterile distilled water and serially diluted in the wells. The MICs were recorded as the lowest peptide concentration that inhibited growth after incubation for 18 h [65]. […]

Compound	Haemolytic (human red blood cells)	haemolysis of sheep erythrocytes (sheep erythrocytes; 16 μg/mL) [%]	haemolysis of sheep erythrocytes (sheep erythrocytes; 24 μg/mL) [%]	Haemolytic activity (Minus PBS/average positive*100) (sheep erythrocytes; 1x MIC, mean)	Haemolytic activity (Minus PBS/average positive*100) (sheep erythrocytes; 1x MIC, replicate 1)	Haemolytic activity (Minus PBS/average positive*100) (sheep erythrocytes; 1x MIC, replicate 2)	Haemolytic activity (Minus PBS/average positive*100) (sheep erythrocytes; 1x MIC, replicate 3)	Haemolytic activity (Minus PBS/average positive*100) (sheep erythrocytes; 1x MIC, replicate 4)	Haemolytic activity (Minus PBS/average positive*100) (sheep erythrocytes; 2x MIC, mean)	Haemolytic activity (Minus PBS/average positive*100) (sheep erythrocytes; 2x MIC, replicate 1)	Haemolytic activity (Minus PBS/average positive*100) (sheep erythrocytes; 2x MIC, replicate 2)	Haemolytic activity (Minus PBS/average positive*100) (sheep erythrocytes; 2x MIC, replicate 3)	Haemolytic activity (Minus PBS/average positive*100) (sheep erythrocytes; 2x MIC, replicate 4)	Haemolytic activity (Minus PBS/average positive*100) (sheep erythrocytes; 3x MIC, mean)	Haemolytic activity (Minus PBS/average positive*100) (sheep erythrocytes; 3x MIC, replicate 1)	Haemolytic activity (Minus PBS/average positive*100) (sheep erythrocytes; 3x MIC, replicate 2)	Haemolytic activity (Minus PBS/average positive*100) (sheep erythrocytes; 3x MIC, replicate 3)	Haemolytic activity (Minus PBS/average positive*100) (sheep erythrocytes; 3x MIC, replicate 4)	MIC against S. aureus strains (S. aureus strains) [µg/mL]	MIC against drug resistant A. baumannii isolates [1] [µg/mL]
CCCCCCCCCCCCCCCC[N+](C)(C)C.[Br-] [CTAB]	100	–	–	–	–	–	–	–	–	–	–	–	–	–	–	–	–	–	–	–
GIVAWFWRLAR [Lubelisin]	–	~20	~30	12.8836	12.4097	12.5903	11.8682	14.6661	18.8177	17.1029	22.6986	19.9007	15.5686	33.7319	34.2509	33.1679	33.7094	33.7996	8	128
